Results: patent US20070155739A1, “Substituted bis-amide metalloprotease inhibitors” (ALANTOS PHARMACEUTICALS, INC., priority 2005, published 2007)
Like-named read-outs stand apart in the source and are kept apart here.

How the values were obtained:
[1] = Microsomal stability, rat microsomes; assay type: in vitro ADME; details: rat microsomes 0.3 mg/mL, 1 μM compound, 60 min at 37° C.
Protocol: (§1) Assay for Microsomal Stability
(§2) For microsomal stability testing 1 μM conzentration of compound and human or rat microsomes (0.3 mg/mL, BD bioscience) are used in the in vitro assay. To ensure proper energy supply for microsomal degradation of compound, an energy regenerating system comprised of NADP, glucose 6-phosphate and glucose 6-phosphate dehydrogenase is added to samples and suspension is incubated for 60 min at 37° C. in rotary shaker. After incubation time, acetonitrile containing internal standard is added to stop metabolization by precipitation of proteins. After centrifugation step, supernatant is analysed by LC-MS/MS and percentage of compound remaining is analysed.

[2] = Microsomal stability, human microsomes; assay type: in vitro ADME; details: human microsomes 0.3 mg/mL, 1 μM compound, 60 min at 37° C.
Protocol: as §1, §2

MMP-13 = MMP-13 (Homo sapiens, UniProt P45452); experiment: Assay for determining MMP-13 inhibition (fluorogenic substrate); assay type: biochemical
Protocol: The MMP-13 inhibiting activity of the bis-amide metalloprotease inhibiting compounds of the present invention may be measured using any suitable assay known in the art. A standard in vitro assay for MMP-13 inhibiting activity is described in Example 999 and a description of the microsomal stability assay is described in Example 999a.
Assay for Determining MMP-13 Inhibition
The typical assay for MMP-13 activity is carried out in assay buffer comprised of 50 mM Tris, pH 7.5, 150 mM NaCl, 5 mM CaCl2 and 0.05% Brij-35. Different concentrations of tested compounds are prepared in assay buffer in 50 μL aliquots. 10 μL of 40 nM stock solution of MMP-13 enzyme is added to the compound solution. The mixture of enzyme and compound in assay buffer is thoroughly mixed and incubated for 20 minutes at room temperature. Upon the completion of incubation, the assay is started by addition of 40 μL of 12.5 μM stock solution of MMP-13 fluorogenic substrate (Calbiochem Cat. No. 444235). The time-dependent increase in fluorescence is measured at the 325 nm excitation and 393 nm emission by automatic plate multireader. The IC50 values are calculated from the initial reaction rates. Selectivity assays were run in a similar manner using MMP-1, MMP-3, MMP-8, MMP-12, MMP-14 and TACE.

[3] = Microsomal stability, comparison in text (species not stated); assay type: in vitro ADME; details: compared with unsubstituted Example 1040d
Protocol: as §2

[4] = Cell viability, comparison; assay type: cell-based; details: compared with unsubstituted Example 1040d
[5] = Table 1, read-out: IC50 (nM), Summary of MMP-13 Activity for Compounds of Formula I
[6] = Table 2, methyl substitution at R^2 or R^3, read-out: IC50 (nM), Comparison of MMP-13 Activity Versus Location of Substituent (R^2 or R^3)

For `C[C@H](NC(=O)c1cc(C(=O)NCc2ccc(F)cc2)ncn1)c1ccc(-c2nnn[nH]2)cc1` [Example 1007c], the “Rat (%), microsomal stability, percentage of compound remaining” value (“Rat (%) … percentage of compound remaining” for short) [1] was 90% and the “Human (%), microsomal stability, percentage of compound remaining” value (“Human (%) … percentage of compound remaining” for short) [2] was 100%.
`Cc1cc(CNC(=O)c2cc(C(=O)N[C@@H](C)c3ccc(-c4noc(CCC(=O)O)n4)cc3)ncn2)ccc1F` [Example 1021] gave an IC50 (MMP-13; [5]) of less than 200 nM.
With `CCc1cc(CNC(=O)c2cc(C(=O)N[C@@H](C)c3ccc(-c4nnn[nH]4)cc3)ncn2)cs1` [Example 1007o] the IC50 (MMP-13; [5]) was less than 200 nM.
For `Cc1cc(CNC(=O)c2cc(C(=O)N[C@@H](C)c3ccc(C(=O)O)cc3)ncn2)ccc1F` [Example 1000], the IC50 (MMP-13; [5]) was less than 200 nM.
For `C[C@H](NC(=O)c1cc(C(=O)NCc2cccs2)ncn1)c1ccc(-c2nnn[nH]2)cc1` [Example 1007d], the IC50 (MMP-13; [5]) was less than 1000 nM.
In the case of `C[C@H](NC(=O)c1cc(C(=O)NCc2ccc(-c3nnn[nH]3)cc2)ncn1)c1ccccc1` [Example 1040b], the “Rat (%) … percentage of compound remaining” value [1] is reported as 96%, the “Human (%) … percentage of compound remaining” value [2] is reported as 96% and the IC50 (MMP-13; [6]) is reported as less than 10 nM.
`Cc1cc(CNC(=O)c2cc(C(=O)N[C@@H](C)c3ccc(-c4nnn[nH]4)cc3)ncn2)ccc1F` [Example 1007] gave an IC50 (MMP-13; [5]) of less than 10 nM.
Molecule `O=C(NCc1ccc(F)cc1)c1cc(C(=O)N[C@@H](CO)c2ccc(-c3nnn[nH]3)cc2)ncn1` [Example 1004] has an IC50 (MMP-13; [5]) of less than 200 nM.
In the case of `COc1cccc(CNC(=O)c2cc(C(=O)NCc3ccc(-c4nnn[nH]4)cc3)ncn2)c1` [Example 1040d, pyrimidine-4,6-dicarboxylic acid 4-(3-methoxybenzylamide) 6-[4-(1H-tetrazol-5-yl)-benzylamide]], the “Rat (%) … percentage of compound remaining” value [1] is reported as 38% and the “Human (%) … percentage of compound remaining” value [2] is reported as 75%.
In the case of `COc1cccc(CNC(=O)c2cc(C(=O)N[C@@H](C)c3ccc(-c4nnn[nH]4)cc3)ncn2)c1` [Example 1005], the “microsomal stability, in words” value [3] is reported as “improvements”, the “cell viability, in words” value [4] is reported as “improvements” and the IC50 (MMP-13; [6]) is reported as less than 10 nM.
In the case of `Cc1cc(CNC(=O)c2cc(C(=O)N[C@@H](C)c3ccc(C(=O)N4CCOCC4)cc3)ncn2)ccc1F` [Example 1028e], the IC50 (MMP-13; [5]) is reported as less than 200 nM.
In the case of `COc1cccc(CNC(=O)c2cc(C(=O)N[C@H](C)c3ccc(-c4nnn[nH]4)cc3)ncn2)c1` (stereo in doubt) [Example 1006], the “Rat (%) … percentage of compound remaining” value [1] is reported as 70%, the “Human (%) … percentage of compound remaining” value [2] is reported as 93% and the IC50 (MMP-13; [6]) is reported as greater than 100 nM.
For `O=C(NCc1ccc(F)cc1)c1cc(C(=O)NCc2ccc(-c3nnn[nH]3)cc2)ncn1` [Example 1040e], the “Rat (%) … percentage of compound remaining” value [1] was 58% and the “Human (%) … percentage of compound remaining” value [2] was 98%.
For `Cc1cc(CNC(=O)c2cc(C(=O)N[C@@H](C(N)=O)c3ccc(-c4nnn[nH]4)cc3)ncn2)ccc1F` [Example 1002], the IC50 (MMP-13; [5]) was less than 10 nM.
With `C[C@@H](NC(=O)c1cc(C(=O)NCc2ccc(-c3nnn[nH]3)cc2)ncn1)c1ccccc1` [Example 1040a] the IC50 (MMP-13; [6]) was greater than 100 nM.
